Assay results reported in publication PMC9967645, “OAT3 Participates in Drug–Drug Interaction between Bentysrepinine and Entecavir through Interactions with M8—A Metabolite of Bentysrepinine—In Rats and Humans In Vitro” (Molecules, 2023).
Where two headings read alike, the source gives them in different places.

Assays:
[1] = Pharmacokinetic DDI study in rats, intravenous Y101 and/or ETV; format: in vivo, Sprague–Dawley (SD) rats; conditions: Sprague-Dawley, rat, plasma; for AUC(0-inf) / AUC(0-t) / C0 / Vd / half-life / Cmax / Tmax: n = 4; for clearance: n = 4, read-out: CLp (plasma clearance) (converted)
Protocol: (§1) Additionally, DDI between Y101 and ETV was investigated by monitoring time-course plasma Y101 in rats with surgery as described above. Animals were randomly placed into three groups (n = 4): (1) Y101 alone (25 mg/kg for intravenous treatment and 60 mg/kg for oral administration); (2) ETV (0.06 mg/kg); and (3) Y101 (25 mg/kg for intravenous treatment and 60 mg/kg for oral administration) + ETV (0.06 mg/kg). ETV was dissolved in saline at concentration of 12 µg/mL. Rats received an oral or intravenous dose of Y101 and/or ETV at volume of 5 mL/kg. The doses used in in vivo pharmacokinetic studies were selected in accordance with therapeutic doses of Y101 and ETV commonly used clinically and in previous studies.
(§2) Following administration, serial blood samples were collected through jugular vein pre-dose (0 h) and post-dose at 0.033, 0.083, 0.25, 0.5, 1, 1.5, 2, 3, 4, 6, 9, 12, 24 and 30 h in heparinized Eppendorf tubes. The resulting samples were centrifuged at 13,800× g at 4 °C for 5 min to obtain plasma. All plasma samples were stored at −70 °C until analysis.
(§3) Biological samples were prepared as previously described.
(§4) Non-compartmental analysis with Phenix WinNonlin (version 8.1; Pharsight, Certara Corp, Princeton, NJ) was used to calculate the main pharmacokinetic parameters of ETV, Y101, M8 and M9 for individual rats. The observed values were reported for maximum concentration (Cmax) and time to reach maximum concentration (Tmax), while the area under the plasma concentration–time curve (AUC) was calculated via the default trapezoidal-up, log-trapezoidal-down approach.

[2] = Pharmacokinetic DDI study in rats, oral Y101 and/or ETV; format: in vivo, Sprague–Dawley (SD) rats; conditions: Sprague-Dawley, rat, plasma, n = 4
Protocol: as §1, §2, §3, §4

[3] = test system: rat kidney slices; experiment: In vitro uptake assay in kidney slices; format: in vitro ADME; conditions: for time and temperature dependence of uptake in kidney slices: 37 °C vs 4 °C, M9 1.0 µM, 5 to 30 min
Protocol: The renal cortex was cut into 300 µm slices with a ZQP-86 tissue slicer (Shanghai Zhisun Equipment Co., Ltd., Shanghai, China; surface area 0.15 cm^2). […] Next, the kidney slices were prepared as previously described. Two slices per well were placed into 37 °C buffer filled with oxygen for pre-incubation for 3 min and then gently moved into a 24-well cell culture plate containing 1 mL oxygenated buffer at 4 °C or 37 °C. The uptakes of ETV (10 µM), Y101 (2.0 µM), M8 (5.0 µM) and M9 (1.0 µM) were measured at 5, 10, 15 and 30 min after the treatment, respectively. […] Following incubation at the designated time, kidney slices were collected, rinsed with ice-cold buffer three times, and dried on filter paper. After weighing and homogenization (IKA-T 10 homogenizer; IKA, Staufen, Germany), the concentrations of Y101, M8, M9 and ETV of kidney slice homogenates were determined as in the description below.
Biological samples were prepared as previously described. Aliquots (50 µL) of urine, plasma, kidney homogenates, or cell lysates were individually mixed with 150 µL methanol and 50 µL working solution of internal standard (acetaminophen or bestatin), followed by vortexing for 1 min and centrifuging at 13,800 g for 10 min. […] The resulting supernatant (1 µL) was subjected to LC-MS/MS for the assessment of Y101, M8, M9 and ETV, respectively. […] The concentrations of ETV, Y101, M8 and M9 were determined by an AB QTRAP 5500 LC–MS/MS System (Foster City, CA, USA) as previously described. Chromatographic separation was achieved on an Infinitylab Poroshell 120 EC-C18 (50 mm × 2.1 mm, 2.7 µm, Agilent Technology Inc., CA, USA) at 40 °C. The mobile phase consisted of formic acid-acetonitrile (0.05:100, v/v) and a mixture of 1 mmol-ammonium acetate-acetonitrile-formic acid (95:5:0.05, v/v/v) at a flow rate of 0.3 mL/min. […] Analyst1.5.2 software was used for data processing and analysis.

[4] = i.v. Y101 25 mg/kg + ETV 0.06 mg/kg
[5] = oral Y101 60 mg/kg + ETV 0.06 mg/kg
[6] = ETV 10 µM, Y101 2.0 µM, M8 5.0 µM

Structure (SMILES)	AUC(0-inf) [1, 4] [ng·h/mL]	AUC(0-t) [1, 4] [ng·h/mL]	C0 [1, 4] [ng/mL]	Vd [1, 4] [L/kg]	half-life [1, 4] [h]	clearance [1, 4] [mL/min/kg]	AUC(0-inf) [2, 5] [ng·h/mL]	AUC(0-t) [2, 5] [ng·h/mL]	Cmax [2, 5] [ng/mL]	Tmax [2, 5] [h]	half-life [2, 5] [h]	AUC(0-inf) ([1]; i.v. Y101 25 mg/kg alone) [ng·h/mL]	AUC(0-t) ([1]; i.v. Y101 25 mg/kg alone) [ng·h/mL]	half-life ([1]; i.v. Y101 25 mg/kg alone) [h]	AUC(0-inf) ([2]; oral Y101 60 mg/kg alone) [ng·h/mL]	AUC(0-t) ([2]; oral Y101 60 mg/kg alone) [ng·h/mL]	Cmax ([2]; oral Y101 60 mg/kg alone) [ng/mL]	Tmax ([2]; oral Y101 60 mg/kg alone) [h]	half-life ([2]; oral Y101 60 mg/kg alone) [h]	time and temperature dependence of uptake in kidney slices ([3]; Y101 2.0 µM, M8 5.0 µM)	other results
C=C1[C@H](CO)[C@@H](O)C[C@@H]1n1cnc2c(=O)[nH]c(N)nc21 [ETV, entecavir]	6.76	6.31	19.1	16.4	1.28	152	7.41	6.76	2.94	0.875	1.45										AUC(0-inf) ([1]; i.v. ETV 0.06 mg/kg alone): 9.79 ng·h/mL; AUC(0-t) ([1]; i.v. ETV 0.06 mg/kg alone): 9.21 ng·h/mL; C0 ([1]; i.v. ETV 0.06 mg/kg alone): 26.4 ng/mL; Vd ([1]; i.v. ETV 0.06 mg/kg alone): 11.7 L/kg; half-life ([1]; i.v. ETV 0.06 mg/kg alone): 1.28 h; clearance ([1]; i.v. ETV 0.06 mg/kg alone): 107 mL/min/kg; AUC(0-inf) ([2]; oral ETV 0.06 mg/kg alone): 8.49 ng·h/mL; AUC(0-t) ([2]; oral ETV 0.06 mg/kg alone): 8.15 ng·h/mL; Cmax ([2]; oral ETV 0.06 mg/kg alone): 5.54 ng/mL; Tmax ([2]; oral ETV 0.06 mg/kg alone): 0.5 h; half-life ([2]; oral ETV 0.06 mg/kg alone): 1.1 h; inhibition of the uptake of M8 in kidney slices ([3]; M8 5.0 µM, PCG 0.2 and 0.5 mM, PRO 0.1 mM, PAH 0.2 and 0.5 mM, TEA 0.2 mM, 10 min, ETV 10 µM): significantly inhibited the uptake of M8; inhibition of the uptake of Y101 in kidney slices ([3]; Y101 2.0 µM, PCG 0.2 and 0.5 mM, PRO 0.1 mM, PAH 0.2 and 0.5 mM, TEA 0.2 mM, 10 min, ETV 10 µM): did not show any inhibitory effects
CN(C)CCOc1ccc(CC(NC(=O)c2ccccc2)C(=O)O)cc1 (stereo not shown) [M8]	6150	6100			2.65		10400	10300	1980	1.5	3.64	5860	5830	1.93	10200	10100	2030	2.25	3.44	temperature-dependent	Cmax [1, 4]: 2520 ng/mL; Cmax ([1]; i.v. Y101 25 mg/kg alone): 2660 ng/mL; Tmax [1, 4]: 0.438 h; Tmax ([1]; i.v. Y101 25 mg/kg alone): 0.5 h; effect on the uptake of ETV in kidney slices [3, 6]: not affected
CN(C)CCOc1ccc(C[C@H](NC(=O)c2ccccc2)C(=O)N[C@H](CO)Cc2ccccc2)cc1.Cl [Y101, N-[N-benzoyl-O-(2-dimethylaminoethyl)-l-tyrosyl]-l-phenylalaninol hydrochloride]	1690	1670	6280	15.5	0.66	258	1680	1620	843	0.313	1.11	2370	2350	0.682	1620	1570	668	0.25	0.998	time- and temperature-dependent	C0 ([1]; i.v. Y101 25 mg/kg alone): 10600 ng/mL; Vd ([1]; i.v. Y101 25 mg/kg alone): 10.6 L/kg; clearance ([1]; i.v. Y101 25 mg/kg alone): 178 mL/min/kg; effect on the uptake of ETV in kidney slices [3, 6]: not affected
